According to patent US20120178815A1, “Compositions of (-)-E-10-OH-NT and Methods for Their Synthesis and Use” (Adolor Corporation, priority 2007, published 2012):
Where two headings read alike, the source gives them in different places.

Experiments:
[1] = tested on: Sprague-Dawley rats, forced swim behaviour; experiment: Rat Forced Swim Test of depression; assay type: in vivo; settings: for amount of time spent climbing: 3-30 mg/kg IP
From the text: Protocol: Male Sprague-Dawley rats (approximately 200 g) are placed in a tank of room temperature water for a fifteen minute practice swim. Every five seconds during the first five minutes of the practice swim, the rats are rated as immobile (floating with motion needed to keep head above the water), swimming (movement across the swim), or climbing (actively trying to climb out of the tank of water, upward directed movements of the forepaws). The percentage of time the rats spent in each of these responses is calculated.
Approximately 24 h after the practice swim, the rats are treated with vehicle or test compound and placed in the tank for a 5 minute swim. As was the case with the practice swim, the rats are rated as immobile, swimming, or climbing during the test swim and the percentage of time spent in each of these responses is calculated. The data are analyzed by one-way ANOVA with post-hoc analysis to compare the behavioral response after vehicle treatment to the behavioral response after drug treatment for each of the three behavioral responses. The level of significance is set at p<0.05.
The percent of time spent immobile, swimming, and climbing (actively trying to scale the sides of the swim tank) in the test swim is shown in FIGS. 15 A, B, and C.

[2] = molecular target: hERG (Homo sapiens, UniProt Q12809); experiment: hERG channel inhibition; assay type: biochemical; settings: cloned hERG channel α subunit (expression host not stated), 10 μM test compound, read-out: percent inhibition of hERG channels
Chain of hERG (Q12809 whole entry): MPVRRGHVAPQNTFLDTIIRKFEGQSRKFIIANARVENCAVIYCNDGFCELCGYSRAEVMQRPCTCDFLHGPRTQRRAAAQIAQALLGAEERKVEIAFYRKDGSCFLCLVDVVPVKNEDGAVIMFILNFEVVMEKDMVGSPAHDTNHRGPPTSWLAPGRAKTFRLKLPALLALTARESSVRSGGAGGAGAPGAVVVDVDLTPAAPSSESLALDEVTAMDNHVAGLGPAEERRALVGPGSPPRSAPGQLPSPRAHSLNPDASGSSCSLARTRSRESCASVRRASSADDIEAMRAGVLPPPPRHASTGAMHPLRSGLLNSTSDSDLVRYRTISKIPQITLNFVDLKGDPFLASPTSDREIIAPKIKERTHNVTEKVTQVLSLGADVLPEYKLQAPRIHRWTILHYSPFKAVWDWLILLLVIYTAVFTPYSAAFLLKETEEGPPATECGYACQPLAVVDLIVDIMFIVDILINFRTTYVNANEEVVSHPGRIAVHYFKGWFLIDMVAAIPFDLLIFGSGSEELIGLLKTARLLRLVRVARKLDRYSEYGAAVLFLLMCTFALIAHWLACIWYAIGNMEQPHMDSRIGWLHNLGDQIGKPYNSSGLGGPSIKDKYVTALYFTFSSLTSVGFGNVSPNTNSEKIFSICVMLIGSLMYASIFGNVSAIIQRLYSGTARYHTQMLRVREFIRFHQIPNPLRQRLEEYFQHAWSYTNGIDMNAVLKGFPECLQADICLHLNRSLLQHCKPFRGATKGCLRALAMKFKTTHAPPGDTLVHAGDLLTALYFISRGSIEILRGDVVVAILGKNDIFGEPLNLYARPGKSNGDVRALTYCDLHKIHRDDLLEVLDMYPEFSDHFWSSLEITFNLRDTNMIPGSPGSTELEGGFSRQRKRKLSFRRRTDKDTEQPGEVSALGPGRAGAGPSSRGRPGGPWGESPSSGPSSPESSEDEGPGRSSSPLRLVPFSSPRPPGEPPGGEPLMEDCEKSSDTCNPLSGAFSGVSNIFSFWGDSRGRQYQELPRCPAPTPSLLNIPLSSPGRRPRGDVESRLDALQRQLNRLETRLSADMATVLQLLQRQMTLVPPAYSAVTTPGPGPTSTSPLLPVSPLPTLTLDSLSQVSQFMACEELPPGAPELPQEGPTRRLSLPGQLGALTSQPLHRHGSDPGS

[3] = molecular target: T1, α2a adrenergic receptor (Homo sapiens, UniProt P08913); experiment: α2a adrenergic receptor binding, [3H]RX821002; settings: for inhibition at 10 µM: read-out: α2a adrenergic receptor, % inhib. at 10 μM
T1 construct: expressed in transfected cells; host or cells: CHO cells
T1 sequence (P08913 1-465): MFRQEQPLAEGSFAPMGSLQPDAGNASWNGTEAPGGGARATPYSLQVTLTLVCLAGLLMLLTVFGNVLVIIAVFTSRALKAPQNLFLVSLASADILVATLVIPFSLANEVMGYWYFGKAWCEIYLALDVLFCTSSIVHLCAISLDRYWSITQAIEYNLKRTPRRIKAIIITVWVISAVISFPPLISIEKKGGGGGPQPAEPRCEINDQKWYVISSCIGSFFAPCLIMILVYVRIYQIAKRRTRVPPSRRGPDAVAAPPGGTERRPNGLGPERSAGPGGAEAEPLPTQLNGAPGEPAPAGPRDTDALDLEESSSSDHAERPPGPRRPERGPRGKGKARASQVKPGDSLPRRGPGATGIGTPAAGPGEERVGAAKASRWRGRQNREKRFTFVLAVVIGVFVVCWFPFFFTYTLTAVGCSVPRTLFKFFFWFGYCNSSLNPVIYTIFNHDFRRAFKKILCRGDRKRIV
Method: Affinity for the α2a adrenergic receptor was tested using CHO cells heterologously expressing the cloned human receptor that were incubated with [^3H]RX821002 (1.0 nM) in the presence of various concentrations of test compounds for 1 hour at 22° C. Nonspecific binding was determined in the presence of 100 μM (−)-epinephrine. Bound radioactivity was determined by scintillation spectroscopy.

[4] = molecular target: T2, α1a adrenergic receptor (rat salivary gland membranes) (Rattus norvegicus, UniProt P43140); experiment: α1a adrenergic receptor binding, [3H]prazocine
T2 construct: tested using membranes prepared from rat salivary gland; from tissue; host or cells: rat salivary gland membranes
T2 sequence (P43140 1-466): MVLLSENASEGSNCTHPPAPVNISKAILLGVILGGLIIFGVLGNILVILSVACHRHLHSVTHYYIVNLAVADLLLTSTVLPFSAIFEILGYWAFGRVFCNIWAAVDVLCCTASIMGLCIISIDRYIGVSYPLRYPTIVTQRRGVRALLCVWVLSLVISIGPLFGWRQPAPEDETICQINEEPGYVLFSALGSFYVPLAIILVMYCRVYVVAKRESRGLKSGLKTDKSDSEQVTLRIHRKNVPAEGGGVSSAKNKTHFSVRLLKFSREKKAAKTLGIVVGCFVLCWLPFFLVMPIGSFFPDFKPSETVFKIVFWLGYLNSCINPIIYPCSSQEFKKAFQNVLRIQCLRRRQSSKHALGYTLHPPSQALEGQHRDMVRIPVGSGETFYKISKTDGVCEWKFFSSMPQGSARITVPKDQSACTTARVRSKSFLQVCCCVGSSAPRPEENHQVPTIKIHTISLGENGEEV
Method: The affinities of AT, NT, (+)-E-10-OH-NT and (−)-E-OH-NT for the α1a, α1b, α2a, α2b, and α2c adrenergic receptors was tested. Affinity for the α1a adrenergic receptor was tested using membranes prepared from rat salivary gland. [^3H]Prazocine (0.06 nM) was incubated in the presence of various concentrations of test compounds with the membranes for 1 hour at 22° C. Nonspecific binding was determined in the presence of 10 μM phentolamine. Bound radioactivity was determined by scintillation spectroscopy.

[5] = molecular target: T3, human muscarinic receptor M1 (Homo sapiens, UniProt P11229); experiment: Muscarinic M1 receptor binding, [3H]pirenzepine; settings: read-out: Affinity for Muscarinic Receptors, M1, Ki
T3 construct: expressed in transfected cells; host or cells: CHO cells (membranes)
T3 sequence (P11229 whole entry): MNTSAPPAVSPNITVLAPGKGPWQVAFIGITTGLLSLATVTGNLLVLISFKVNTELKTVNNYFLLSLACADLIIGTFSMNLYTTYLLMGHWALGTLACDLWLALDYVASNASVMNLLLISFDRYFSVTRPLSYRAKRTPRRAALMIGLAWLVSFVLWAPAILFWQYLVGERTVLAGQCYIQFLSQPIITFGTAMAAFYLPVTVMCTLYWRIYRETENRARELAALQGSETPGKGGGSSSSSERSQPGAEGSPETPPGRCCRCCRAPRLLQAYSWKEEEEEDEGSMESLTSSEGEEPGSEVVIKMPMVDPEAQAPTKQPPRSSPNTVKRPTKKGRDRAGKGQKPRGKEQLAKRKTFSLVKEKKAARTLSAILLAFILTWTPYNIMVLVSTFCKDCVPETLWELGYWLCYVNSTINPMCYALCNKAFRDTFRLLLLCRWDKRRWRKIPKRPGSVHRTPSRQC
Method: (§1) Protocol. […] Bound radioactivity was determined by scintillation spectroscopy. Non-specific binding was defined as the amount of bound radioligand in the presence of 1.0 μM atropine. Radioligand for the M1 receptor was [^3H]pirenzepine (2 nM). Radioligand for the M2 receptor was [^3H]AF-DX384 (2 nM). Radioligand for the M3, M4, and M5 receptors was [^3H]4-DAMP.

[6] = molecular target: T4, 5HT uptake, rat brain synaptosomes (Rattus norvegicus, UniProt P31652); experiment: Inhibition of [3H]-5HT uptake into synaptosomes; assay type: biochemical; settings: read-out: Monoamine Uptake Inhibition, 5HT, IC50
T4 construct: into rat brain synaptosomes; from tissue; host or cells: rat brain synaptosomes
T4 sequence (P31652 whole entry): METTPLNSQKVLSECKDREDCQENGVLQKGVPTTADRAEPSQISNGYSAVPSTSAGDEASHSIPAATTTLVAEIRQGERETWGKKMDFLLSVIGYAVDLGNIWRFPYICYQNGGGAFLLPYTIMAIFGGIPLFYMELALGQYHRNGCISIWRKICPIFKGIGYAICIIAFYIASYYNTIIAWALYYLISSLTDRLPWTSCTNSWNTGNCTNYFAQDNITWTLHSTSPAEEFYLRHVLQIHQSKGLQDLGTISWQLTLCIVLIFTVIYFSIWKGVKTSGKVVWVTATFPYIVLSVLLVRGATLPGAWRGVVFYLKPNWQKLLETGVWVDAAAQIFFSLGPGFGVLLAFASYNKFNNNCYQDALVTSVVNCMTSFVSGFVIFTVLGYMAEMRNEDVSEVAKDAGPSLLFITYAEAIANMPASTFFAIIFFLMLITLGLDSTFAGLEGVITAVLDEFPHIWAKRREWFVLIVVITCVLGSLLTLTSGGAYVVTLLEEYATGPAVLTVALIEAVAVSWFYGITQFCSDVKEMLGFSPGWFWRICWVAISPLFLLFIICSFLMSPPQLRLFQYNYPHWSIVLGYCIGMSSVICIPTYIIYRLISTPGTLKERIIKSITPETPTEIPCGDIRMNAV

[7] = molecular target: T5, human muscarinic receptor M3 (Homo sapiens, UniProt P20309); experiment: Muscarinic M3 receptor binding, [3H]4-DAMP; settings: read-out: Affinity for Muscarinic Receptors, M3, Ki
T5 construct: expressed in transfected cells; host or cells: CHO cells (membranes)
T5 sequence (P20309 whole entry): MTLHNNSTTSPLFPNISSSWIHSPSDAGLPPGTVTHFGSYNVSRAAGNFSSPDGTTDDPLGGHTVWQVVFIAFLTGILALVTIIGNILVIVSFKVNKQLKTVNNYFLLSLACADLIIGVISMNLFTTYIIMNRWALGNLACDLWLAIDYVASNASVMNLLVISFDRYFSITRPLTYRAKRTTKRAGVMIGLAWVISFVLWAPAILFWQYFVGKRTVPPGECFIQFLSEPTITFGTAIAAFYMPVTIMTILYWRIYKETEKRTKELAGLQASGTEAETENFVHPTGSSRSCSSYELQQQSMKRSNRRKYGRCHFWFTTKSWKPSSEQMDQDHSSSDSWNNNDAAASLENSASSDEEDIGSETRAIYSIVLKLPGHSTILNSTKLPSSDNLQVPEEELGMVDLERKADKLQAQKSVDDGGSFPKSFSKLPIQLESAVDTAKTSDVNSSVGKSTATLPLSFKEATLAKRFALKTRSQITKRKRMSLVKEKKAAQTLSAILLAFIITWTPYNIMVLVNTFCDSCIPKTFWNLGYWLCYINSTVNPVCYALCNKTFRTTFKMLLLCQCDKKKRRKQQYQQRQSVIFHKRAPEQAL
Method: as §1

[8] = molecular target: T6, human H1 histaminergic receptor (Homo sapiens, UniProt P35367); experiment: H1 histaminergic receptor competitive binding assay, [3H]pyrilamine; settings: for reduction of H1 histaminergic receptor affinity compared to AT: relative to AT; for reduction of H1 histaminergic receptor affinity compared to NT: relative to NT
T6 construct: expressed in transfected cells; host or cells: HEK-293 cells (membranes)
T6 sequence (P35367 whole entry): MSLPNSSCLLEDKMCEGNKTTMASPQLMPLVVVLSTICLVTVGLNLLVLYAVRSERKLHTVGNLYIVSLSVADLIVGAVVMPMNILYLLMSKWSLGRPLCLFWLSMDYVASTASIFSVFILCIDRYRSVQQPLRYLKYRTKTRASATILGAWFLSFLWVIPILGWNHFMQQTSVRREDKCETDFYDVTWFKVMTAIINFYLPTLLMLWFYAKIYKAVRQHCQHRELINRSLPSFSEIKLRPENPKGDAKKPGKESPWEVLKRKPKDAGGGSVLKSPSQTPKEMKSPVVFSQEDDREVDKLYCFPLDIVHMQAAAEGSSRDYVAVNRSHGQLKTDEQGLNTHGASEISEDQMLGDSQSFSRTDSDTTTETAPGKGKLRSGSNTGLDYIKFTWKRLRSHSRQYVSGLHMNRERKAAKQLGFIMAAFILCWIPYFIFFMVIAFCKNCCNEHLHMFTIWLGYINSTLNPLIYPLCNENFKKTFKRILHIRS
Method: Protocol. The affinities of AT, NT, (+)-E-10-OH-NT and (−)-E-10-OH-NT for the H1 histaminergic receptor were assessed in a competitive binding assay. For the assay, [^3H]pyrilamine (3 nM) was incubated with various concentrations of test compound for 1 hour at 22° C. with membranes prepared from human embryonic kidney (HEK-293) cells heterologously expressing the cloned human H1 histaminergic receptor. Bound radioactivity was determined by scintillation spectroscopy. Non-specific binding was defined as the amount of binding that occurred in the presence of 1.0 μM unlabeled pyrilamine.

[9] = read-out: Affinity at α1a adrenergic receptor, Ki

Compound	activity in the forced swim test ([1]; doses up to 30 mg/kg IP)	inhibition at 10 µM [2]	inhibition at 10 µM [3]	Ki [4, 9]	Ki [5]	IC50 [6]	Ki [7]	reduction of H1 histaminergic receptor affinity compared to AT [8]	reduction of H1 histaminergic receptor affinity compared to NT [8]	increase in time spent swimming ([1]; 10 mg/kg IP)	increase in time spent swimming ([1]; 30 mg/kg IP)	amount of time spent climbing [1]	Ki ([3]; read-out: Affinity at α2a adrenergic receptor, Ki)	Ki [4]
CNCC/C=C1\c2ccccc2C[C@H](O)c2ccccc21 (stereo in doubt) [(+)-E-10-OH-NT]	not active	8.8%	15%	700 nM	710 nM	860 nM	820 nM	220 fold	40 fold					
CNCC/C=C1\c2ccccc2C[C@@H](O)c2ccccc21 (stereo in doubt) [(−)-E-10-OH-NT]		6%	23%	3000 nM	410 nM	4400 nM	390 nM	220 fold	40 fold	64%	108%	did not alter the amount of time spent climbing		
CN(C)CCC=C1c2ccccc2CCc2ccccc21 [AT, amitriptyline, reference compound]				21 nM						81%	147%	did not alter the amount of time spent climbing	570 nM	
CNCCC=C1c2ccccc2CCc2ccccc21 [NT, nortriptyline, reference compound]		55.1%												60 nM
